Results from the NIST ThermoML archive (doi:10.1021/je101191e).

How the values were obtained:
[1] = xn = mol fraction of the nth substance listed; conditions: 298.15 K, 101.3 kPa, Liquid; for viscosity: Concentric cylinders viscometry; for mass density: Pycnometric method
[2] = 298.15 K; 101.33 kPa; Liquid; Pycnometric method

CCCCCCCC(=O)[O-].CC[NH+](C(C)C)C(C)C [N-ethyl-N-isopropylpropan-2-aminium octanoate] + O
[1]
Conditions	mass density [kg/m3]	viscosity [mPa·s]
x1 = 0.0948	955.1	–
x1 = 0.1	–	36.61
x1 = 0.193	927.3	–
x1 = 0.2	–	52.36
x1 = 0.2908	905.7	–
x1 = 0.3	–	42.39
x1 = 0.3981	890.6	–
x1 = 0.4	–	32.19
x1 = 0.5	–	27.62
x1 = 0.505	877.4	–
x1 = 0.5846	872.2	–
x1 = 0.6	–	26.19
x1 = 0.6749	867.2	–
x1 = 0.7	–	21.29
x1 = 0.7994	862.9	–
x1 = 0.8	–	18.05
x1 = 0.86	861	–
x1 = 0.9	–	16.65
x1 = 1	858.5	13.52

O [water] + CCCCCCCC(=O)[O-].CC[NH+](C(C)C)C(C)C
Conditions	viscosity [mPa·s]
[1], x2 = 0	0.891

CCCCCCC(=O)[O-].CC[NH+](C(C)C)C(C)C [N-ethyl-N-isopropylpropan-2-aminium heptanoate] + CC#N
[1]
Conditions	mass density [kg/m3]	viscosity [mPa·s]
x1 = 0.1	–	1.09
x1 = 0.1016	820.6	–
x1 = 0.2	–	1.826
x1 = 0.2003	840.8	–
x1 = 0.3	–	2.51
x1 = 0.3046	849.7	–
x1 = 0.4	–	3.875
x1 = 0.402	853.8	–
x1 = 0.5	–	5.158
x1 = 0.5021	857.1	–
x1 = 0.6	–	7.013
x1 = 0.6083	859.8	–
x1 = 0.7	–	9
x1 = 0.705	862.3	–
x1 = 0.8	–	11.6
x1 = 0.8013	863.9	–
x1 = 0.9	–	13.5
x1 = 0.9013	865.4	–
x1 = 1	866.5	12.23

O [water] + CCCCCCC(=O)[O-].CC[NH+](C(C)C)C(C)C
Conditions	viscosity [mPa·s]
[1], x2 = 0	0.891

CCCCCCC(=O)O [heptanoic acid]
Conditions	mass density [kg/m3]
[2]	918

CC#N [acetonitrile] + CCCCCCCC(=O)[O-].CC[NH+](C(C)C)C(C)C
[1], x2 = 0
Conditions	mass density [kg/m3]	viscosity [mPa·s]
–	768.6	0.335

CCN(C(C)C)C(C)C [N-ethyl-N-(1-methylethyl)-1-methylethanamine]
Conditions	mass density [kg/m3]
[2]	742

CC#N [acetonitrile] + CCCCCCC(=O)[O-].CC[NH+](C(C)C)C(C)C
[1], x2 = 0
Conditions	mass density [kg/m3]	viscosity [mPa·s]
–	768.6	0.335

CCCCCCC(=O)[O-].CC[NH+](C(C)C)C(C)C [N-ethyl-N-isopropylpropan-2-aminium heptanoate] + O
[1]
Conditions	mass density [kg/m3]	viscosity [mPa·s]
x1 = 0.0998	966.3	–
x1 = 0.1	–	21.99
x1 = 0.198	936.2	–
x1 = 0.2	–	43.71
x1 = 0.299	913.6	–
x1 = 0.3	–	41.58
x1 = 0.4	–	31.51
x1 = 0.4007	900.3	–
x1 = 0.5	–	26.92
x1 = 0.5007	889.9	–
x1 = 0.5941	884	–
x1 = 0.6	–	23.65
x1 = 0.6913	877.2	–
x1 = 0.7	–	22.67
x1 = 0.7896	872.6	–
x1 = 0.8	–	18.07
x1 = 0.9	–	14.44
x1 = 0.9014	869.5	–
x1 = 1	866.5	12.23

CCCCCCCC(=O)[O-].CC[NH+](C(C)C)C(C)C [N-ethyl-N-isopropylpropan-2-aminium octanoate] + CC#N
[1]
Conditions	mass density [kg/m3]	viscosity [mPa·s]
x1 = 0.0948	815.2	–
x1 = 0.1	–	1.291
x1 = 0.193	834.3	–
x1 = 0.2	–	1.947
x1 = 0.2908	842.2	–
x1 = 0.3	–	2.865
x1 = 0.3981	847.3	–
x1 = 0.4	–	4.921
x1 = 0.5	–	6.897
x1 = 0.505	850	–
x1 = 0.5846	852	–
x1 = 0.6	–	8.725
x1 = 0.6749	853.3	–
x1 = 0.7	–	11
x1 = 0.7994	855.8	–
x1 = 0.8	–	13.31
x1 = 0.86	856.5	–
x1 = 0.9	–	14.82
x1 = 1	858.5	13.52

CCCCCCCC(=O)O [octanoic acid]
Conditions	mass density [kg/m3]
[2]	910
